Tested on: human T cells
Experiment: 30 min [3H]thymidine, [3H]uridine and [3H]amino acid incorporation
Assay type: cell-based
Conditions: 30 min label, 250 μM vesnarinone
Experimental: Next, the PHA-stimulated T cells were labelled for 30 min with 5.0 μCi/ml of an [^3 H]amino acid mixture (1.0 mCi/ml, Amersham, Arlington Heights, Ill.), washed twice with ice-cold PBS, and then lysed in PBS containing 1.0% (w/v) SDS, followed by addition of a mixture of 7.0% (w/v) trichloroacetic acid and 1.0% (w/v) pyrophosphate. The precipitates were loaded on GF/A filters, and washed extensively with a mixture of 7.0% (w/v) trichloroacetic acid and 1.0% (w/v) pyrophosphate. Radioactivity was measured by scintillation counting.

Structure (SMILES): COc1ccc(C(=O)N2CCN(c3ccc4c(c3)CCC(=O)N4)CC2)cc1OC [vesnarinone, 3,4-dihydro-6-[4-(3,4-dimethoxybenzoyl)-1-piperazinyl]-2(1H)-quinoline]
- [3H]amino acid incorporation: did not inhibit [^3 H]amino acid incorporation
- [3H]uridine incorporation, brief exposure (15 nM aphidicolin or 100 μM deferoxamine): rapidly inhibited [^3 H]uridine incorporation

Source: patent publication US5670520A, “Method for inhibiting virus replication in mammalian cells using carbostyil derivatives” (Otsuka Pharmaceutical Co., Ltd., priority 1996, dated 1997)
